The text below walks through data of patent publication US8202865B2, “Oxadiazole derivatives” (Merck Serono SA, priority 2007, dated 2012).

Structures are written as SMILES. Counter-ions that a name gives are not always drawn.

For assay [1], the target named is T1, S1P1 (Homo sapiens, UniProt P21453).
T1 construct: expressed in transfected cells; host or cells: CHO cells (membranes)
Nature of the assay: Receptor binding assay, [33P]sphingosine 1-phosphate, membranes, WGA SPA beads. Conditions: membranes from CHO cells expressing S1P1; 25 pM [33P]S1P; 60 min RT. The protocol: (§1) Receptor binding assay: Membranes were prepared from CHO cells expressing S1P1 or S1P3 for use in ligand and […] binding studies. Cells were suspended in 50 mM TRIS, pH 7.4, 2 mM EDTA, 250 mM Sucrose (buffer A) and 1× Complete protease inhibitor cocktail (Roche), and disrupted at 4° C. by N2 decompression using a cell disruption bomb (Parr Instrument). Following centrifugation at 1000 RPM for 10 min at 4° C., the supernatant was suspended in buffer A and centrifuged again at 19000 RPM for 60 min at 4° C. The pellet was then suspended in 10 mM HEPES, pH 7.4, 1 mM EDTA, 250 mM Sucrose (Buffer B), and 1× Complete EDTA-free protease inhibitor cocktail and homogenized using a potter. Membranes were flash frozen in liquid N2 and stored at −80° C. [33P]sphingosine 1-phosphate (3000 Ci/mmol; American Radiolabeled Chemicals, Inc.) was added to test compounds in DMSO. Membranes and WGA SPA beads (GE Healthcare) were added to give a final volume of 100 μl in 96-well plates with assay concentrations of 25 pM or 10 pM [33P]sphingosine 1-phosphate (respectively for S1P1 or S1P3), 50 mM HEPES, pH 7.5, 5 mM MgCl2, 100 mM NaCl, 0.4% fatty acid-free BSA, 1-5 μg/well of proteins and 100 μg/well of WGA SPA beads. Binding was performed for 60 min at RT on a shaker and bound radioactivity was measured on a PerkinElmer 1450 MicroBeta counter. Specific binding was calculated by subtracting remaining radioactivity in the presence of 1000-fold excess of unlabeled S1P. Binding data were analyzed using the GraphPad Prism program.

Assay [2] deals with T1, S1P1. Nature of the assay: 35S-GTPγS binding, S1P1 membranes. It is filed as biochemical. The following applies: membranes from CHO cells expressing S1P1; 60 min 30° C. A digest of the protocol:
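CHO-cell membranes expressing S1P1 or S1P3 (1-10 μg) incubated with compounds in 20 mM HEPES pH 7.4, 10 mM MgCl2, 140 mM NaCl, saponin, 0.2% BSA, 1.7 μM GDP and [35S]-GTPγS (20 μl of 1.5 nM added), 60 min at 30° C. Bound radioactivity expressed as % of S1P activation.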
On the technique in general: Binding of GTPγS marks nucleotide exchange on a G protein.

Assay [3] concerns the target T2, S1P3 (Homo sapiens, UniProt Q99500).
T2 construct: expressed in transfected cells; host or cells: CHO cells (membranes)
Nature of the assay: 35S-GTPγS binding, S1P3 membranes. Type of assay: biochemical. The following applies: membranes from CHO cells expressing S1P3; 60 min 30° C. The protocol: as §1
Measurements of ^35S-GTPγS Binding: Membranes (1 to 10 μg protein) prepared as described above, were incubated in 96-well Scintiplates (PerkinElmer) with test compounds diluted in DMSO, in 180 μl of 20 mM HEPES, pH 7.4, 10 mM MgCl2, 2 μg/well Saponin, 0.2% fatty acid free BSA (Assay buffer), 140 mM NaCl and 1.7 μM GDP. The assay was initiated with the addition of 20 μl of 1.5 nM [35S]-GTPγS (1100 Ci/mmol; GE Healthcare) in assay buffer. After 60 min incubation at 30° C. on a shaker, plates were centrifuged for 10 min at 2000 RPM. Supernatant was discarded and membrane bound radioactivity was measured on a PerkinElmer 1450 MicroBeta counter. Triplicate samples were averaged and expressed as % response relative to S1P activation in absence of compound (n=2).

T1 sequence (P21453 whole entry, species assumed): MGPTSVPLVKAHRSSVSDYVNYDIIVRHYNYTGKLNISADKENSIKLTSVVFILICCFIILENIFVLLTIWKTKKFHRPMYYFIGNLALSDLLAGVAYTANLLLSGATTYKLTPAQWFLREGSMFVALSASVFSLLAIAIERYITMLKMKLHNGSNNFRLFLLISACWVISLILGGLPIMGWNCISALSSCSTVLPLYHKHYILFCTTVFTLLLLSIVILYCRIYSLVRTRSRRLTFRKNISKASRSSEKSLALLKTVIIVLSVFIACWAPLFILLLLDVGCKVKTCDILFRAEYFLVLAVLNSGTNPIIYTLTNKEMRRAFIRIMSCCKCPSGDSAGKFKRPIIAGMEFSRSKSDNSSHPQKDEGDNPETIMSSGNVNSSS
T2 sequence (Q99500 whole entry, species assumed): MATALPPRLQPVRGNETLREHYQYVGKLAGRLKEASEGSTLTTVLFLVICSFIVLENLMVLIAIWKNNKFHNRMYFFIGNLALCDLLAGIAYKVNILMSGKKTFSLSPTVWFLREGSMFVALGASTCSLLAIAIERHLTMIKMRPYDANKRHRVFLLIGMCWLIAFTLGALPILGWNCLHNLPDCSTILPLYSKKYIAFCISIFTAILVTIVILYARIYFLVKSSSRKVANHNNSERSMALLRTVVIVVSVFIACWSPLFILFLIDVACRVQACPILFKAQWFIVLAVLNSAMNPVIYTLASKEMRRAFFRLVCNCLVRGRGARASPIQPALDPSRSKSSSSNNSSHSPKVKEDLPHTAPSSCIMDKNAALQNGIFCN

`O=C(O)c1ccc(-c2noc(-c3ccc(-c4ccccc4Cl)cc3)n2)cc1F` [Example 2, 4-[5-(2′-chlorobiphenyl-4-yl)-1,2,4-oxadiazol-3-yl]-2-fluorobenzoic acid]: the affinity in assay [1], expressed as Ki, was 1500 nM. Further, the results for the EC50 in assay [2] and in assay [3] were 4720 nM and more than 30000 nM, respectively.

Turning to `Cc1ccccc1-c1ccc(-c2nc(-c3ccc(C(=O)O)c(F)c3)no2)cc1C` [Example 4, 4-[5-(2,2′-dimethylbiphenyl-4-yl)-1,2,4-oxadiazol-3-yl]-2-fluorobenzoic acid], the affinity in assay [1], expressed as Ki, was 126 nM. Further, the EC50 – broadly, the concentration at which the effect is half-maximal – was 317 nM in assay [2] and more than 30000 nM in assay [3].

Turning to `COc1ccccc1-c1ccc(-c2nc(-c3ccc(C(=O)O)c(F)c3)no2)cc1C` [Example 7, 2-fluoro-4-[5-(2′-methoxy-2-methylbiphenyl-4-yl)-1,2,4-oxadiazol-3-yl]benzoic acid], the EC50 was 924 nM in assay [2] and more than 30000 nM in assay [3].

Take `Cc1cc(-c2nc(-c3ccc(C(=O)O)c(F)c3)no2)ccc1-c1cscc1C` [Example 9, 2-fluoro-4-{5-[3-methyl-4-(4-methyl-3-thienyl)phenyl}-1,2,4-oxadiazol-3-yl]benzoic acid]: the Ki (commonly the equilibrium dissociation constant of an inhibitor or competing ligand from its target) in assay [1] was determined as 40 nM. Further, the concentration for a half-maximal effect (EC50) in assay [2] is 136 nM; in assay [3], more than 30000 nM.

Take `Cc1ccccc1-c1ccc(-c2nc(-c3ccc(C(=O)O)c(F)c3)no2)cc1[N+](=O)[O-]` [Example 11, 2-fluoro-4-[5-(2′-methyl-2-nitrobiphenyl-4-yl)-1,2,4-oxadiazol-3-yl]benzoic acid]: the EC50 was 645 nM in assay [2] and more than 30000 nM in assay [3].

In the case of `CC1CCCCN1c1ccc(-c2nc(-c3ccc(C(=O)O)c(F)c3)no2)cc1[N+](=O)[O-]` (centres unmarked) [Example 15, 2-fluoro-4-{5-[4-(2-methylpiperidin-1-yl)-3-nitrophenyl]-1,2,4-oxadiazol-3-yl}benzoic acid], the EC50 in assay [2] was 1220 nM; in assay [3], more than 30000 nM.

In the case of `COCc1cc(-c2nc(-c3ccc(C(=O)O)c(F)c3)no2)ccc1-c1ccccc1C` [Example 35, 2-fluoro-4-{5-[2-(methoxymethyl)-2′-methylbiphenyl-4-yl]-1,2,4-oxadiazol-3-yl}benzoic acid], the inhibitory constant (Ki) in assay [1] is 10 nM. The midpoint of the response in assay [2], the EC50, lay at 30 nM.

In assay [1], `CC1CCCCN1c1ccc(-c2nc(-c3ccc(S(N)(=O)=O)cc3)no2)cc1NS(C)(=O)=O` (centres unmarked) [Example 37, 4-(5-{4-(2-methylpiperidin-1-yl)-3-[(methylsulfonyl)amino]phenyl}-1,2,4-oxadiazol-3-yl)benzenesulfonamide] returned an inhibition constant Ki of 10 nM. Moreover, in assay [2], the midpoint of the response, the EC50, lay at 1.6 nM.

`CCC(C)Oc1ncc(-c2nc(-c3ccc(OCC(=O)O)c(F)c3)no2)cc1Cl` (centres unmarked) [Example 50, {4-[5-(6-sec-butoxy-5-chloropyridin-3-yl)-1,2,4-oxadiazol-3-yl]-2-fluorophenoxy}acetic acid] came in with an inhibition constant Ki in assay [1] of 50 nM. This compound yielded an EC50 in assay [2] of 261 nM.

Take `CC(C)Oc1ncc(-c2nc(-c3ccc(OCC(=O)O)c(F)c3)no2)cc1Cl` [Example 53, {4-[5-(5-chloro-6-isopropoxypyridin-3-yl)-1,2,4-oxadiazol-3-yl]-2-fluorophenoxy}acetic acid]: the concentration for a half-maximal effect (EC50) was 294 nM in assay [2] and more than 20000 nM in assay [3].

Turning to `Cc1ccccc1-c1ccc(-c2nc(-c3ccc(C(=O)NCC(=O)O)c(F)c3)no2)cc1C` [Example 54, N-{4-[5-(2,2′-dimethylbiphenyl-4-yl)-1,2,4-oxadiazol-3-yl]-2-fluorobenzoyl}glycine], the concentration for a half-maximal effect (EC50) in assay [2] turned out to be 168 nM; in assay [3], 6430 nM.

On to `Cc1ccccc1-c1ccc(-c2nc(-c3ccc(C(=O)NCCC(=O)O)c(F)c3)no2)cc1C` [Example 55, N-{4-[5-(2,2′-dimethylbiphenyl-4-yl)-1,2,4-oxadiazol-3-yl]-2-fluorobenzoyl}-beta-alanine], for which the figures for the EC50 in assay [2] and in assay [3] were 53 nM and 12600 nM, respectively.

In assay [1], `CC1CCCCN1c1ccc(-c2nc(-c3cccc(CN(C)CC(=O)O)c3)no2)cc1NS(C)(=O)=O` (centres unmarked) [Example 57, N-methyl-N-[3-(5-{4-(2-methylpiperidin-1-yl)-3-[(methylsulfonyl)amino]phenyl}-1,2,4-oxadiazol-3-yl)benzyl]glycine, Hydrochloride salt] came in with an inhibitory constant (Ki) of 6 nM. Also, the EC50 in assay [2] was 4 nM.

As for `COCc1ccccc1-c1ccc(-c2nc(-c3ccc(C(=O)O)c(F)c3)no2)cc1COC` [Example 85, 4-{5-[2,2′-bis(methoxymethyl)biphenyl-4-yl]-1,2,4-oxadiazol-3-yl}-2-fluorobenzoic acid], the results for the EC50 in assay [2] and in assay [3] were 556 nM and 2300 nM, respectively.

In the case of `COCc1cc(-c2nc(-c3ccc(C(=O)NCC(=O)OC)c(F)c3)no2)ccc1-c1ccccc1C` [Example 122, Methyl N-(2-fluoro-4-{5-[2-(methoxymethyl)-2′-methylbiphenyl-4-yl]-1,2,4-oxadiazol-3-yl}benzoyl)glycinate], in assay [1], the inhibitory constant (Ki) stood at 0.9 nM. The compound further showed a 50% effective concentration (EC50) in assay [2] of 2.5 nM.

`COCc1cc(-c2nc(-c3ccc(F)c(CN(C)CC(=O)O)c3)no2)ccc1N1CCCCC1C` (centres unmarked) [Example 152, N-(2-fluoro-5-{5-[3-(methoxymethyl)-4-(2-methylpiperidin-1-yl)phenyl]-1,2,4-oxadiazol-3-yl}benzyl)-N-methylglycine, Dihydrochloride salt]: the figures for the EC50 in assay [2] and in assay [3] were 0.6 nM and 223 nM, respectively.

As for `COCc1cc(-c2nc(-c3cccc(OCC(=O)O)c3)no2)ccc1-c1ccccc1C` [Example 167, (3-{5-[2-(methoxymethyl)-2′-methylbiphenyl-4-yl]-1,2,4-oxadiazol-3-yl}phenoxy)acetic acid], in assay [1], the affinity corresponds to a Ki of 10 nM. Besides, in assay [2], a half-maximal effect (EC50) was put at 22.4 nM.

With `COCc1cc(-c2nc(-c3ccc(OCCCC(=O)O)c(F)c3)no2)ccc1-c1ccccc1C` [Example 168, 4-(2-fluoro-4-{5-[2-(methoxymethyl)-2′-methylbiphenyl-4-yl]-1,2,4-oxadiazol-3-yl}phenoxy)butanoic acid], the 50% effective concentration (EC50) in assay [2] worked out at 7.8 nM; in assay [3] it was 219 nM.

On to `COCc1cc(-c2nc(-c3ccc(C(=O)NCCC#N)c(F)c3)no2)ccc1-c1ccccc1C` [Example 173, N-(2-cyanoethyl)-2-fluoro-{5-[2-(methoxymethyl)-2′-methylbiphenyl-4-yl]-1,2,4-oxadiazol-3-yl}benzamide], for which the inhibitory constant (Ki) in assay [1] amounted to 2 nM. In addition, the concentration giving a half-maximal response (EC50) in assay [2] turned out to be 6 nM.

Consider `COCCN(C)Cc1cccc(-c2noc(-c3ccc(-c4ccccc4C)c(COC)c3)n2)c1` [Example 185, 2-methoxy-N-(3-{5-[2-(methoxymethyl)-2′-methylbiphenyl-4-yl]-1,2,4-oxadiazol-3-yl}benzyl)-N-methylethanamine, Hydrochloride salt], for which affinity in assay [1] was put at a Ki of 7 nM. For the same compound, the EC50 in assay [2] is 5 nM.

Compound `COCc1cc(-c2nc(-c3cccc(CCO)c3)no2)ccc1-c1ccccc1C` [Example 190, 2-(3-{5-[2-(methoxymethyl)-2′-methylbiphenyl-4-yl]-1,2,4-oxadiazol-3-yl}phenyl)ethanol] returned a Ki in assay [1] of 4.3 nM. Also, the response in assay [2] was half-maximal at 0.7 nM (EC50).

`COCc1cc(-c2nc(-c3ccc(CO)cc3)no2)ccc1-c1ccccc1C` [Example 191, (4-{5-[2-(methoxymethyl)-2′-methylbiphenyl-4-yl]-1,2,4-oxadiazol-3-yl}phenyl)methanol] showed a Ki in assay [1] of 7 nM. In addition, the concentration giving a half-maximal response (EC50) in assay [2] is 2.1 nM.
